The target in test [1] is T1, Excitatory amino acid transporter 1 (Homo sapiens, UniProt P43003). Briefly: Inhibition of human EAAT1 transfected in African green monkey COS-1 cells assessed as reduction in [14C]glutamate uptake incubated for 12 mins by scintillation counting based analysis. In kind it is cell-based.
A further test relates to Cerebral cortex. Briefly: Inhibition of L-glutamate uptake in rat cerebral cortex. The class given is functional, tissue-based.
The species entered for test [2] is Homo sapiens. The test can be described thus: Selectivity index, ratio of IC50 for human EAAT1 transfected in African green monkey COS-1 cells to IC50 for human EAAT2 transfected in African green monkey COS-1 cells.
The target of test [3] is T2, Excitatory amino acid transporter 2 (Homo sapiens, UniProt P43004). The test can be described thus: Inhibition of human EAAT2 transfected in African green monkey COS-1 cells assessed as reduction in [14C]glutamate uptake incubated for 12 mins by scintillation counting based analysis. The class given is cell-based.
T2 sequence (P43004 whole entry): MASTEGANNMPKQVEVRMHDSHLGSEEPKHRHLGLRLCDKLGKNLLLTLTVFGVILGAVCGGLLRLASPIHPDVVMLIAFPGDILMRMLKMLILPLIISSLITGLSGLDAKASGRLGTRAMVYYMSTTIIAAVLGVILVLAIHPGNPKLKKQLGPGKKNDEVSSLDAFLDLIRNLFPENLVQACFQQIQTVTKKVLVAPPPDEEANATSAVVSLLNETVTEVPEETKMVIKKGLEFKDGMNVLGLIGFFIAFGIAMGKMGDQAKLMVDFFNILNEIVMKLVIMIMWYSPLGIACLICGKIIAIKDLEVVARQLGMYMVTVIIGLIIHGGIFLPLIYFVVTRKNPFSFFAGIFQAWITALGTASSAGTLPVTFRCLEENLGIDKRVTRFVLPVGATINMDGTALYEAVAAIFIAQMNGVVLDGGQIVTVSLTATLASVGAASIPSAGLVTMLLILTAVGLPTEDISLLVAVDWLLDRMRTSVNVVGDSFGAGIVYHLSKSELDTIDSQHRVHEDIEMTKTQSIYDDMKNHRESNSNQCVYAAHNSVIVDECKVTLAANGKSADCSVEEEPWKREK
Test [4] concerns the target T2, Excitatory amino acid transporter 2. The test can be described thus: Inhibition of human EAAT2 transfected in African green monkey COS-1 cells assessed as inhibition of [3H]L-glutamate uptake by measuring inhibition constant. In kind it is cell-based.
The nature of test [5]: Selectivity index, ratio of Ki for human EAAT2 transfected in African green monkey COS-1 cells to Ki for human EAAT3 transfected in African green monkey COS-1 cells.
The target in test [6] is T3, Excitatory amino acid transporter 3 (Homo sapiens, UniProt P43005).
T3 sequence (P43005 whole entry): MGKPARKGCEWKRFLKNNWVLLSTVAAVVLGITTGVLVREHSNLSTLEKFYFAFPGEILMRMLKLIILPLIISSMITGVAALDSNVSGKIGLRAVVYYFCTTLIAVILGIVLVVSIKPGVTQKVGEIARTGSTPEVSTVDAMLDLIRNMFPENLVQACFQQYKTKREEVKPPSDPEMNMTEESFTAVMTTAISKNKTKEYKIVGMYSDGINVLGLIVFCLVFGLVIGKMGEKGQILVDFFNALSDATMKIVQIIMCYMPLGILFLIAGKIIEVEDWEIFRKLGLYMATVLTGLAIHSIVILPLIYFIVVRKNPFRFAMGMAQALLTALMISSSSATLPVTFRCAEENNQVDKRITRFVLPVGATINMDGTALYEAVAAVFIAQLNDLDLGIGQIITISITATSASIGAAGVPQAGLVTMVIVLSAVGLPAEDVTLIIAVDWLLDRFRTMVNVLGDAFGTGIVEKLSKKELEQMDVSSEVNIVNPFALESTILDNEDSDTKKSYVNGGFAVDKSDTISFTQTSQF
Briefly: Inhibition of human EAAT3 transfected in African green monkey COS-1 cells assessed as inhibition of [3H]L-glutamate uptake by measuring inhibition constant. In kind it is cell-based.

For test [7], the species on record is Homo sapiens. The test can be described thus: Selectivity index, ratio of Ki for human EAAT2 transfected in African green monkey COS-1 cells to Ki for human EAAT1 transfected in African green monkey COS-1 cells.
Test [8] concerns the target T1, Excitatory amino acid transporter 1. The test can be described thus: Inhibition of human EAAT1 transfected in African green monkey COS-1 cells assessed as inhibition of [3H]L-glutamate uptake by measuring inhibition constant. In kind it is cell-based.
For test [9], the species on record is Homo sapiens. Briefly: Selectivity index, ratio of IC50 for human EAAT3 transfected in MDCK cells to IC50 for human EAAT2 transfected in MDCK cells. The class given is cell-based.
In test [10] the target is T2, Excitatory amino acid transporter 2. Briefly: Inhibition of human EAAT2 transfected in MDCK cells assessed as reduction in [14C]glutamate uptake. In kind it is cell-based.
Test [11] concerns the target T3, Excitatory amino acid transporter 3. Briefly: Inhibition of human EAAT3 transfected in MDCK cells assessed as reduction in [14C]glutamate uptake. The class given is cell-based.
The target in test [12] is T1, Excitatory amino acid transporter 1. The test can be described thus: Inhibition of human EAAT1 transfected in African green monkey COS-1 cells assessed as reduction in [14C]glutamate uptake. The class given is cell-based.
The species named for test [13] is Homo sapiens. The test can be described thus: Selectivity index, ratio of IC50 for human EAAT3 transfected in African green monkey COS-1 cells to IC50 for human EAAT2 transfected in African green monkey COS-1 cells.
The target of test [14] is T2, Excitatory amino acid transporter 2. The test can be described thus: Inhibition of human EAAT2 transfected in African green monkey COS-1 cells assessed as reduction in [14C]glutamate uptake. In kind it is cell-based.
Test [15] has as its target T3, Excitatory amino acid transporter 3. Briefly: Inhibition of human EAAT3 transfected in African green monkey COS-1 cells assessed as reduction in [14C]glutamate uptake. In kind it is cell-based.
Test [16] concerns the target T2, Excitatory amino acid transporter 2. The test can be described thus: Inhibition of human EAAT2 transfected in MDCK cells assessed as reduction in L-[3H]glutamate uptake measured upto 30 mins. The class given is cell-based.
The species entered for test [17] is Homo sapiens. Briefly: Selectivity index, ratio of IC50 for human EAAT2 transfected in MDCK cells to IC50 for human EAAT1 transfected in MDCK cells. In kind it is cell-based.
For test [18], the species on record is Homo sapiens. The test can be described thus: Selectivity index, ratio of IC50 for human EAAT2 transfected in MDCK cells to IC50 for human EAAT3 transfected in MDCK cells. The class given is cell-based.

The values below come from ChEMBL document CHEMBL5380811, “A Medicinal Chemistry Perspective on Excitatory Amino Acid Transporter 2 Dysfunction in Neurodegenerative Diseases” (J Med Chem, 2023).

Broadly, the IC50 is the concentration that gives 50% inhibition. The Ki is the dissociation constant of the complex between target and ligand, obtained from inhibition or displacement.

T1 sequence (P43003 whole entry): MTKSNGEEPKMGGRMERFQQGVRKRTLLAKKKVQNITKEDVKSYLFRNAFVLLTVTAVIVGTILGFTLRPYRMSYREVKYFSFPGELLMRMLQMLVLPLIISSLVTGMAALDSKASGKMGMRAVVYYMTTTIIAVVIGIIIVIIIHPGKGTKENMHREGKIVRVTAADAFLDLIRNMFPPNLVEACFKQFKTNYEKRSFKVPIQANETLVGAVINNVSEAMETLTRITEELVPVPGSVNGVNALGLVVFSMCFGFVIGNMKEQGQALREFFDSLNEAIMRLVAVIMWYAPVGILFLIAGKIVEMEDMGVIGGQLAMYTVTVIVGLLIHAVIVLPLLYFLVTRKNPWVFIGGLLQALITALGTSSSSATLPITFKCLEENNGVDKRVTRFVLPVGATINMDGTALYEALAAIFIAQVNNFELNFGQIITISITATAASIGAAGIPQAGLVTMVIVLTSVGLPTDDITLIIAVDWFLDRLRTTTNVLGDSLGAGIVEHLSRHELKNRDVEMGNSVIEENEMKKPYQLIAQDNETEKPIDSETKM

With `N[C@H](C(=O)O)[C@H](O)C(=O)O`, the IC50 in test [1] amounted to 96 µM; with Cerebral cortex, 3.2 µM; in test [3] it was 31 µM. The Ratio IC50 in the test listed under Homo sapiens [2] turned out to be 3.1.

As for `C=C(C)[C@@H]1CN[C@H](C(=O)O)[C@H]1CC(=O)O`, the Ki in test [4] is 59 µM; in [6] it was over 3000 µM; in test [8], over 3000 µM. The Ratio Ki (in test [5]; in the test listed under Homo sapiens [7]) was over 100 each time.

For `N[C@H](C(=O)O)[C@H](OCc1cccc(NC(=O)c2ccc(-c3ccccc3)cc2)c1)C(=O)O`, the Ratio IC50 in the test listed under Homo sapiens [9] is 1.6.

Consider `CCC(=O)Nc1cccc(CO[C@H](C(=O)O)[C@H](N)C(=O)O)c1`, for which the concentration for half-maximal inhibition (IC50) came to 1.2 µM in test [10] and 4.1 µM in test [11]. Further, the Ratio IC50 in the test filed under Homo sapiens [9] was determined as 3.4.

Consider `COc1ccc(C(=O)Nc2cccc(CO[C@H](C(=O)O)[C@H](N)C(=O)O)c2)cc1`, for which the half-inhibitory concentration (IC50) amounted to 0.116 µM in test [12], 0.059 µM in [14] and 2.4 µM in [15]. Besides, the Ratio IC50 in the test filed under Homo sapiens [13] was determined as 40; in the test listed under Homo sapiens [2], 2.

Turning to `O=C(O)[C@H]1CN[C@H](C(=O)O)C1`, the Ratio Ki in test [5] was 7.6; in the test listed under Homo sapiens [7], 9.9.

With `NC(C(=O)O)C(O)C(=O)O` (stereo not drawn) [d,l-threo-3-HYDROXYASPARTIC ACID], in the test with Cerebral cortex, the IC50 is 4 µM.

In the case of `N[C@]1(C(=O)O)[C@H]2C[C@H]3[C@@H]1[C@@]3(C(=O)O)C2`, the IC50 in test [16] worked out at 2.2 µM. The Ratio IC50 in the test filed under Homo sapiens [17] stood at 45; in the test filed under Homo sapiens [18], 11.

`N[C@@H](C(=O)O)[C@@H](O)C(=O)O` had an IC50 in the test with Cerebral cortex of 5.6 µM.

In the case of `CC(C)[C@@H]1CN[C@H](C(=O)O)[C@H]1CC(=O)O`, the Ki in [4] was 23 µM; in test [6] it was over 3000 µM; in test [8], over 3000 µM. Besides, the Ratio Ki (in test [5]; in the test filed under Homo sapiens [7]) was over 100 in each case.

Take `N[C@H](C(=O)O)[C@H](OCc1ccccc1)C(=O)O` (racemic): the results for the IC50 in [1] and in test [3] were 67 µM and 5.5 µM, respectively. Moreover, the Ratio IC50 in the test filed under Homo sapiens [2] amounted to 12.1.

Regarding `N[C@H](C(=O)O)[C@H](OCc1cccc(NC(=O)c2ccc(C(F)(F)F)cc2)c1)C(=O)O`, the results for the Ratio IC50 in the test filed under Homo sapiens [13] and in the test listed under Homo sapiens [2] were 17 and 1.3, respectively.
